A word on the mortality: it is the share of the test organisms that died.

21 compounds from patent US9445594B2, “Molecules having certain pesticidal utilities, intermediates, compositions, and processes, related thereto” (priority 2014, dated 2016) can be followed below.

Type in all cases: in vivo
Data set [1] relates to Cabbage Looper (Trichoplusia ni, TRIPNI) ("CL"). Kind of data set: Bioassays on CL, 128-well diet tray assay. The following applies: 168 h, second instar larvae, 50 μg/cm^2 on artificial diet, 25° C., five to seven days, average of eight wells, read-out: CL % Control (or Mortality) rating. How it is done: (§1) Certain molecules disclosed in this document were tested against BAW, CEW, and CL using procedures described in the following examples. In the reporting of the results, the “BAW, CEW, & CL Rating Table” was used (See Table Section).
Bioassays on CL were conducted using a 128-well diet tray assay. one to five second instar CL larvae were placed in each well (3 mL) of the diet tray that had been previously filled with 1 mL of artificial diet to which 50 μg/cm^2 of the test compound (dissolved in 50 μL of 90:10 acetone-water mixture) had been applied (to each of eight wells) and then allowed to dry. Trays were covered with a clear self-adhesive cover and held at 25° C., 14:10 light-dark for five to seven days. Percent mortality was recorded for the larvae in each well; activity in the eight wells was then averaged. The results are indicated in the table entitled “Table ABC: Biological Results” (See Table Section).

For data set [2], the system named is Yellow Fever Mosquito (Aedes aegypti, AEDSAE) ("YFM"). Kind of data set: Bioassays on YFM, 96-well plate larval assay. As to conditions: about 1 day-old larvae, from 4000 ppm DMSO master plate diluted, room temperature, scored after 3 days. On the procedure:
Certain molecules disclosed in this document were tested against YFM using procedures described in the following paragraph. In the reporting of the results, the “YFM Rating Table” was used (See Table Section).
Master plates containing 400 μg of a molecule dissolved in 100 μL of dimethyl sulfoxide (DMSO) (equivalent to a 4000 ppm solution) are used. A master plate of assembled molecules contains 15 μL per well. To this plate, 135 μL of a 90:10 water:acetone mixture is added to each well. A robot (Biomek® NXP Laboratory Automation Workstation) is programmed to dispense 15 μL aspirations from the master plate into an empty 96-well shallow plate (“daughter” plate). There are 6 reps (“daughter” plates) created per master. The created daughter plates are then immediately infested with YFM larvae.
The day before plates are to be treated, mosquito eggs are placed in Millipore water containing liver powder to begin hatching (4 g. into 400 mL). After the daughter plates are created using the robot, they are infested with 220 μL of the liver powder/larval mosquito mixture (about 1 day-old larvae). After plates are infested with mosquito larvae, a non-evaporative lid is used to cover the plate to reduce drying. Plates are held at room temperature for 3 days prior to grading. After 3 days, each well is observed and scored based on mortality.

Data set [3] deals with Beet Armyworm (Spodoptera exigua, LAPHEG) ("BAW"). Put plainly: Bioassays on BAW, 128-well diet tray assay. As to conditions: 168 h, second instar larvae, 50 μg/cm^2 on artificial diet, 25° C., five to seven days, average of eight wells, read-out: BAW % Control (or Mortality) rating. How it is done:
as §1
Bioassays on BAW were conducted using a 128-well diet tray assay. one to five second instar BAW larvae were placed in each well (3 mL) of the diet tray that had been previously filled with 1 mL of artificial diet to which 50 μg/cm^2 of the test compound (dissolved in 50 μL of 90:10 acetone-water mixture) had been applied (to each of eight wells) and then allowed to dry. Trays were covered with a clear self-adhesive cover and held at 25° C., 14:10 light-dark for five to seven days. Percent mortality was recorded for the larvae in each well; activity in the eight wells was then averaged. The results are indicated in the table entitled “Table ABC: Biological Results” (See Table Section).

With `O=C(Nc1ccc(-c2ncn(-c3ccc(OC(F)(F)F)cc3)n2)cc1)Nc1ccccc1Cc1ccccc1` [F51, 1-(2-Benzylphenyl)-3-(4-(1-(4-(trifluoromethoxy)phenyl)-1H-1,2,4-triazol-3-yl)phenyl)urea], the mortality at 50 µg/cm2 in data set [1] and in data set [3] was 0 to 50% throughout. Further, the “YFM % Control (or Mortality) rating” value in data set [2] is reported as “D (No activity noticed in this bioassay)”.

Regarding `CC(C)c1ccccc1NC(=S)NCCCCc1ccc(-c2ncn(-c3ccc(OC(F)(F)F)cc3)n2)cc1` [F88, 1-(2-Isopropylphenyl)-3-(4-(4-(1-(4-(trifluoromethoxy)phenyl)-1H-1,2,4-triazol-3-yl)phenyl)butyl)thiourea], the mortality at 50 µg/cm2 in data set [1] and in data set [3] was 50 to 100% each time. Also, the “YFM % Control (or Mortality) rating” value in data set [2] is “A (80-100)”.

Consider `CCc1ccccc1NC(=O)NCCCc1ccc(-c2ncn(-c3ccc(OC(F)(F)F)cc3)n2)cc1` [F86, 1-(2-Ethylphenyl)-3-(3-(4-(1-(4-(trifluoromethoxy)phenyl)-1H-1,2,4-triazol-3-yl)phenyl)propyl)urea], for which the mortality at 50 µg/cm2 in data set [1] and in data set [3] was 50 to 100% each time. In data set [2], the “YFM % Control (or Mortality) rating” value is reported as “A (80-100)”.

For `O=C(NCc1ccc(-c2ncn(-c3ccc(OC(F)(F)F)cc3)n2)cc1)Nc1ccccc1Cl` [F104, 1-(2-Chlorophenyl)-3-(4-(1-(4-(trifluoromethoxy)phenyl)-1H-1,2,4-triazol-3-yl)benzyl)urea], the figures for the mortality at 50 µg/cm2 in data set [1] and in data set [3] were 0 to 50% and 50 to 100%, respectively. Moreover, the “YFM % Control (or Mortality) rating” value in data set [2] is listed as “B (More than 0 - Less than 80)”.

Regarding `O=C(NCCCc1ccc(-c2ncn(-c3ccc(OC(F)(F)F)cc3)n2)cc1)Nc1cccc(Cl)c1` [F85, 1-(3-Chlorophenyl)-3-(3-(4-(1-(4-(trifluoromethoxy)phenyl)-1H-1,2,4-triazol-3-yl)phenyl)propyl)urea], the mortality at 50 µg/cm2 in data set [1] and in data set [3] was 50 to 100% in each case. Also, in data set [2], the “YFM % Control (or Mortality) rating” value is “A (80-100)”.

Turning to `CC(C)c1ccccc1NC(=O)Nc1ccc(-c2ncn(-c3ccc(OC(F)(F)C(F)(F)F)cc3)n2)cc1` [F54, 1-(2-Isopropylphenyl)-3-(4-(1-(4-(perfluoroethoxy)phenyl)-1H-1,2,4-triazol-3-yl)phenyl)urea], the mortality at 50 µg/cm2 in data set [1] and in data set [3] was 50 to 100% throughout. In data set [2], the “YFM % Control (or Mortality) rating” value is on record as “D (No activity noticed in this bioassay)”.

`Cc1ccccc1NC(=O)NCCCCc1ccc(-c2ncn(-c3ccc(OC(F)(F)F)cc3)n2)cc1` [F89, 1-(o-Tolyl)-3-(4-(4-(1-(4-(trifluoromethoxy)phenyl)-1H-1,2,4-triazol-3-yl)phenyl)butyl)urea]: the “YFM % Control (or Mortality) rating” value in data set [2] is “D (No activity noticed in this bioassay)”. Moreover, the mortality at 50 µg/cm2 in data set [3] came out at 0%.

For the compound `CCc1ccccc1NC(=O)NCc1ccc(-c2ncn(-c3ccc(OC(F)(F)F)cc3)n2)cc1` [F101, 1-(2-Ethylphenyl)-3-(4-(1-(4-(trifluoromethoxy)phenyl)-1H-1,2,4-triazol-3-yl)benzyl)urea], the “YFM % Control (or Mortality) rating” value in data set [2] is reported as “D (No activity noticed in this bioassay)”. Also, the mortality at 50 µg/cm2 in data set [3] came out at 0%.

For the compound `Cc1cccc(NC(=O)NCCCc2ccc(-c3ncn(-c4ccc(OC(F)(F)F)cc4)n3)cc2)c1` [F87, 1-(m-Tolyl)-3-(3-(4-(1-(4-(trifluoromethoxy)phenyl)-1H-1,2,4-triazol-3-yl)phenyl)propyl)urea], the mortality at 50 µg/cm2 in data set [1] was 0%. Besides, the “YFM % Control (or Mortality) rating” value in data set [2] was “D (No activity noticed in this bioassay)”.

Take `Cc1cccc(NC(=O)NCCCCc2ccc(-c3ncn(-c4ccc(OC(F)(F)F)cc4)n3)cc2)c1` [F91, 1-(m-Tolyl)-3-(4-(4-(1-(4-(trifluoromethoxy)phenyl)-1H-1,2,4-triazol-3-yl)phenyl)butyl)urea]: the mortality at 50 µg/cm2 in data set [1] came to 0%. Also, the “YFM % Control (or Mortality) rating” value in data set [2] is listed as “D (No activity noticed in this bioassay)”.

Regarding `CCc1ccccc1N(C(=O)Nc1ccc(-c2ncn(-c3ccc(OC(F)(F)F)cc3)n2)cc1)C(N)=S` [F52, N-(2-Ethylphenyl)-N-(4-{1-[4-(trifluoromethoxy)phenyl]-1H-1,2,4-triazol-3-yl}phenyl)dicarbonimidothioic diamide], the mortality at 50 µg/cm2 in data set [1] and in data set [3] was 50 to 100% throughout.

For the compound `Cc1ccccc1N(C(=O)Nc1ccc(-c2ncn(-c3ccc(OC(F)(F)F)cc3)n2)cc1)C(N)=S` [F19, N-(2-methylphenyl)-N-(4-{1-[4-(trifluoromethoxy)phenyl]-1H-1,2,4-triazol-3-yl}phenyl)dicarbonimidothioic diamide], the mortality at 50 µg/cm2 in data set [1] and in data set [3] was 50 to 100% throughout.

`Cc1ccccc1-c1cccnc1NC(=O)Nc1ccc(-c2ncn(-c3ccc(OC(F)(F)F)cc3)n2)cc1` [F24, 1-(3-(o-Tolyl)pyridin-2-yl)-3-(4-(1-(4-(trifluoromethoxy)phenyl)-1H-1,2,4-triazol-3-yl)phenyl)urea]: the mortality at 50 µg/cm2 in data set [1] and in data set [3] was 50 to 100% in each case.

For `Cc1ccc(NC(=O)NCCCc2ccc(-c3ncn(-c4ccc(OC(F)(F)F)cc4)n3)cc2)cc1` [F83, 1-(p-Tolyl)-3-(3-(4-(1-(4-(trifluoromethoxy)phenyl)-1H-1,2,4-triazol-3-yl)phenyl)propyl)urea], in data set [1], the mortality at 50 µg/cm2 is 0%. In data set [2], the “YFM % Control (or Mortality) rating” value is “D (No activity noticed in this bioassay)”.

In the case of `O=C(NCc1ccc(-c2ncn(-c3ccc(OC(F)(F)F)cc3)n2)cc1)Nc1ccccc1-c1ccccc1` [F70, 1-([1,1′-biphenyl]-2-yl)-3-(4-(1-(4-(trifluoromethoxy)phenyl)-1H-1,2,4-triazol-3-yl)benzyl)urea], the mortality at 50 µg/cm2 in data set [1] and in data set [3] was 50 to 100% each time.

For the compound `O=C(Nc1ccc(-c2ncn(-c3ccc(OC(F)(F)F)cc3)n2)cc1)Nc1ccccc1-n1cccc1` [F13, 1-(2-(1H-pyrrol-1-yl)phenyl)-3-(4-(1-(4-(trifluoromethoxy)phenyl)-1H-1,2,4-triazol-3-yl)phenyl)urea], the mortality at 50 µg/cm2 in data set [1] and in data set [3] was 50 to 100% each time.

For `O=C(NCCCc1ccc(-c2ncn(-c3ccc(OC(F)(F)F)cc3)n2)cc1)Nc1ccc(Cl)cc1` [F79, 1-(4-Chlorophenyl)-3-(3-(4-(1-(4-(trifluoromethoxy)phenyl)-1H-1,2,4-triazol-3-yl)phenyl)propyl)urea], the mortality at 50 µg/cm2 in data set [1] lay in the range of 50 to 100%. Also, the “YFM % Control (or Mortality) rating” value in data set [2] is “D (No activity noticed in this bioassay)”.

Regarding `COc1ccc(NC(=O)NCCCc2ccc(-c3ncn(-c4ccc(OC(F)(F)F)cc4)n3)cc2)cc1` [F82, 1-(4-Methoxyphenyl)-3-(3-(4-(1-(4-(trifluoromethoxy)phenyl)-1H-1,2,4-triazol-3-yl)phenyl)propyl)urea], the mortality at 50 µg/cm2 in data set [1] was found to be 0%. Further, the “YFM % Control (or Mortality) rating” value in data set [2] is reported as “D (No activity noticed in this bioassay)”.

Consider `O=C(NCCCCc1ccc(-c2ncn(-c3ccc(OC(F)(F)F)cc3)n2)cc1)Nc1ccccc1Cl` [F92, 1-(2-Chlorophenyl)-3-(4-(4-(1-(4-(trifluoromethoxy)phenyl)-1H-1,2,4-triazol-3-yl)phenyl)butyl)urea], for which the mortality at 50 µg/cm2 in data set [1] is 0%. Moreover, in data set [2], the “YFM % Control (or Mortality) rating” value is listed as “D (No activity noticed in this bioassay)”.

Take `COc1cccc(NC(=O)NCCCCc2ccc(-c3ncn(-c4ccc(OC(F)(F)F)cc4)n3)cc2)c1` [F96, 1-(3-Methoxyphenyl)-3-(4-(4-(1-(4-(trifluoromethoxy)phenyl)-1H-1,2,4-triazol-3-yl)phenyl)butyl)urea]: in data set [2], the “YFM % Control (or Mortality) rating” value was “D (No activity noticed in this bioassay)”. The mortality at 50 µg/cm2 in data set [3] came to 0%.

In the case of `O=C(Nc1ccc(-c2ncn(-c3ccc(OC(F)(F)F)cc3)n2)cc1)Nc1ncccc1-c1ccccc1` [F32, 1-(3-Phenylpyridin-2-yl)-3-(4-(1-(4-(trifluoromethoxy)phenyl)-1H-1,2,4-triazol-3-yl)phenyl)urea], the “YFM % Control (or Mortality) rating” value in data set [2] was “B (More than 0 - Less than 80)”.
